In patent US10722514B2 (FLX Bio, Inc., priority 2017, dated 2020):

Target: T1, recombinant full-length USP7 (Homo sapiens, UniProt Q93009)
T1 construct: A 25 μl reaction volume containing recombinant full-length USP7 (62 pM)
Assay: USP7-mediated ubiquitin-rhodamine cleavage assay
Assay type: biochemical
Settings: recombinant full-length USP7 62 pM; ubiquitin-rhodamine 100 nM; 30-minute pre-incubation, 1 hour reaction at room temperature; read-out: Potency (USP7 IC50)
Procedure, shortened: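 After compound and enzyme (62 pM) sat together 30 min at RT, 100 nM fluorogenic ubiquitin-rhodamine substrate was added for 1 h protected from light. Acetic acid quenched the reaction prior to the fluorescence read.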

T1 sequence (Q93009 whole entry): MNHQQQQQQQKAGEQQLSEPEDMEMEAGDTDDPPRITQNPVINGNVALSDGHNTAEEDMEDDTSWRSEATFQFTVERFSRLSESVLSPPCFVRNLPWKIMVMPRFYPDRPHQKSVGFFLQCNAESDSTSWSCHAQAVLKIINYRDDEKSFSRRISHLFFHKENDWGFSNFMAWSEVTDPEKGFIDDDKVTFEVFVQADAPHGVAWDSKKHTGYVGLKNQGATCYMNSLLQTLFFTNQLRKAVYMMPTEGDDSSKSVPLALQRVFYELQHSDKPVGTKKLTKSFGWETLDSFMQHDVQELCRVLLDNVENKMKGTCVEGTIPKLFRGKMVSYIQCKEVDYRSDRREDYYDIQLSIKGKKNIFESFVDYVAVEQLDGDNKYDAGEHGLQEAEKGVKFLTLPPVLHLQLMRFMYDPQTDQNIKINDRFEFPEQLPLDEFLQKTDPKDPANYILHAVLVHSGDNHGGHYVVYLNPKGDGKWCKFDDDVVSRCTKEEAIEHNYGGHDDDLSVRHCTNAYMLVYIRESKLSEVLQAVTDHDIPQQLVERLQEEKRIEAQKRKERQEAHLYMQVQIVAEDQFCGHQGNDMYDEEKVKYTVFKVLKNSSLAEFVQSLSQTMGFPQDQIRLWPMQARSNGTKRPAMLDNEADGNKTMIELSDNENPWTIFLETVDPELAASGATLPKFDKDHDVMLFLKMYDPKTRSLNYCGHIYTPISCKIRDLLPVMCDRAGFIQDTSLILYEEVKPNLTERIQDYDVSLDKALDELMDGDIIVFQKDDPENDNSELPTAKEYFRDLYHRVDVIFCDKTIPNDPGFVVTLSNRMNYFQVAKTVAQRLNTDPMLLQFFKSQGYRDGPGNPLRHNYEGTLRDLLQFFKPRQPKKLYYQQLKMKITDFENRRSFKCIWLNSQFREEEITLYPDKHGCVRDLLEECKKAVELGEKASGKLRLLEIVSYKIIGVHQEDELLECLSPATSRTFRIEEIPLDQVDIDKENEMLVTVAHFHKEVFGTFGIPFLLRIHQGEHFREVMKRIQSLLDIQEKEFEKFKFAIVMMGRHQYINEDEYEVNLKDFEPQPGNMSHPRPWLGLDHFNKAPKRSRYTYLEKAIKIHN

Row | SMILES | IC50
1 | Cc1cc(Cl)cc(-c2ccnc3cc(Cn4c(=O)ccn(C)c4=O)sc23)c1O[C@H]1CCCN(CCO)CC1 [Example 494, 3-[[7-[5-chloro-2-[(4S)-1-(2-hydroxyethyl)azepan-4-yl]oxy-3-methyl-phenyl]thieno[3,2-b]pyridin-2-yl]methyl]-1-methyl-pyrimidine-2,4-dione] | < 1 µM
2 | Cc1cc(Cl)cc(-c2ccnc3cc(Cn4c(=O)ccn(C)c4=O)sc23)c1O[C@@H]1CCN[C@@H](C)C1 [Example 495, 3-[[7-[5-chloro-3-methyl-2-[[(2S,4R)-2-methyl-4-piperidyl]oxy]phenyl]thieno[3,2-b]pyridin-2-yl]methyl]-1-methyl-pyrimidine-2,4-dione] | < 1 µM
3 | Cc1cc(Cl)cc(-c2ccnc3cc(Cn4c(=O)ccn(C)c4=O)sc23)c1O[C@@H]1CNC[C@@H](F)C1 [Example 496, 3-[[7-[5-chloro-2-[[(3S,5S)-5-fluoro-3-piperidyl]oxy]-3-methyl-phenyl]thieno[3,2-b]pyridin-2-yl]methyl]-1-methyl-pyrimidine-2,4-dione] | < 1 µM
4 | Cc1cc(Cl)cc(-c2ccnc3cc(Cn4c(=O)ccn(C)c4=O)sc23)c1O[C@@H]1CNC[C@H](F)C1 [Example 497, 3-[[7-[5-chloro-2-[[(3S,5R)-5-fluoro-3-piperidyl]oxy]-3-methyl-phenyl]thieno[3,2-b]pyridin-2-yl]methyl]-1-methyl-pyrimidine-2,4-dione] | < 1 µM
5 | Cn1ccc(=O)n(Cc2cc3nccc(-c4cc(Cl)cc(C(F)F)c4O[C@H]4CCCNC4)c3s2)c1=O [Example 498, 3-[[7-[5-chloro-3-(difluoromethyl)-2-[[(3S)-3-piperidyl]oxy]phenyl]thieno[3,2-b]pyridin-2-yl]methyl]-1-methyl-pyrimidine-2,4-dione] | < 1 µM
6 | Cc1cc(C(F)F)cc(-c2ccnc3cc(Cn4c(=O)ccn(C)c4=O)sc23)c1O[C@H]1CCCNC1 [Example 499, 3-[[7-[5-(difluoromethyl)-3-methyl-2-[[(3S)-3-piperidyl]oxy]phenyl]thieno[3,2-b]pyridin-2-yl]methyl]-1-methyl-pyrimidine-2,4-dione] | < 1 µM
7 | Cc1cc(Cl)cc(-c2ccnc3cc(Cn4c(=O)ccn(C)c4=O)sc23)c1O[C@@H]1CNC[C@@H](O)C1 [Example 500, 3-[[7-[5-chloro-2-[[(3S,5S)-5-hydroxy-3-piperidyl]oxy]-3-methyl-phenyl]thieno[3,2-b]pyridin-2-yl]methyl]-1-methyl-pyrimidine-2,4-dione] | < 1 µM
8 | Cc1cc(Cl)cc(-c2ccnc3cc(Cn4c(=O)ccn(C)c4=O)sc23)c1O[C@@H]1C[C@H]2COCCN2C1 [Example 501, 3-[[7-[2-[[(7R,8aS)-3,4,6,7,8,8a-hexahydro-1H-pyrrolo[2,1-c][1,4]oxazin-7-yl]oxy]-5-chloro-3-methyl-phenyl]thieno[3,2-b]pyridin-2-yl]methyl]-1-methyl-pyrimidine-2,4-dione] | < 1 µM
9 | Cc1cc(Cl)cc(-c2ccnc3cc(Cn4c(=O)ccn(C)c4=O)sc23)c1O[C@@H]1C[C@@H]2COCCN2C1 [Example 502, 3-[[7-[2-[[(7R,8aR)-3,4,6,7,8,8a-hexahydro-1H-pyrrolo[2,1-c][1,4]oxazin-7-yl]oxy]-5-chloro-3-methyl-phenyl]thieno[3,2-b]pyridin-2-yl]methyl]-1-methyl-pyrimidine-2,4-dione] | < 1 µM
10 | Cc1cc(Cl)cc(-c2ccnc3cc(Cn4c(=O)ccn(C)c4=O)sc23)c1OC1CCCN(C)C1 (centres unmarked) [Example 503, 3-[[7-[5-chloro-3-methyl-2-[(1-methyl-3-piperidyl)oxy]phenyl]thieno[3,2-b]pyridin-2-yl]methyl]-1-methyl-pyrimidine-2,4-dione] | < 1 µM
11 | CCN1CCCC(Oc2c(C)cc(Cl)cc2-c2ccnc3cc(Cn4c(=O)ccn(C)c4=O)sc23)C1 (centres unmarked) [Example 504, 3-[[7-[5-chloro-2-[(1-ethyl-3-piperidyl)oxy]-3-methyl-phenyl]thieno[3,2-b]pyridin-2-yl]methyl]-1-methyl-pyrimidine-2,4-dione] | < 1 µM
12 | Cc1cc(Cl)cc(-c2ccnc3cc(Cn4c(=O)ccn(C)c4=O)sc23)c1OC1CCCN(C(C)C)C1 (centres unmarked) [Example 505, 3-[[7-[5-chloro-2-[(1-isopropyl-3-piperidyl)oxy]-3-methyl-phenyl]thieno[3,2-b]pyridin-2-yl]methyl]-1-methyl-pyrimidine-2,4-dione] | < 1 µM
13 | Cc1cc(Cl)cc(-c2ccnc3cc(Cn4c(=O)ccn(C)c4=O)sc23)c1OC1CCCN(CCO)C1 (centres unmarked) [Example 506, 3-[[7-[5-chloro-2-[[1-(2-hydroxyethyl)-3-piperidyl]oxy]-3-methyl-phenyl]thieno[3,2-b]pyridin-2-yl]methyl]-1-methyl-pyrimidine-2,4-dione] | < 1 µM
14 | Cc1cc(Cl)cc(-c2ccnc3cc(Cn4c(=O)ccn(C)c4=O)sc23)c1OC1CCCN(CCC(F)(F)F)C1 (centres unmarked) [Example 507, 3-[[7-[5-chloro-3-methyl-2-[[1-(3,3,3-trifluoropropyl)-3-piperidyl]oxy]phenyl]thieno[3,2-b]pyridin-2-yl]methyl]-1-methyl-pyrimidine-2,4-dione] | < 1 µM
15 | Cc1cc(Cl)cc(-c2ncnc3cc(Cn4c(=O)ccn(C(C)C)c4=O)sc23)c1O[C@@H]1CCNC[C@@H]1C [Example 508, 3-[[4-[5-chloro-3-methyl-2-[[(3S,4R)-3-methyl-4-piperidyl]oxy]phenyl]thieno[3,2-d]pyrimidin-6-yl]methyl]-1-isopropyl-pyrimidine-2,4-dione] | < 1 µM
16 | Cc1cc(Cl)cc(-c2ncnc3cc(Cn4c(=O)ccn(C(C)C)c4=O)sc23)c1OC1CC2CNC1C2 (centres unmarked) [Example 509, 3-[[4-[2-(3-azabicyclo[2.2.1]heptan-5-yloxy)-5-chloro-3-methyl-phenyl]thieno[3,2-d]pyrimidin-6-yl]methyl]-1-isopropyl-pyrimidine-2,4-dione] | < 1 µM
17 | Cc1cc(Cl)cc(-c2ncnc3cc(Cn4c(=O)ccn(C(C)C)c4=O)sc23)c1O[C@@H]1CCN(C)C[C@@H]1C [Example 510, 3-[[4-[5-chloro-2-[[(3S,4R)-1,3-dimethyl-4-piperidyl]oxy]-3-methyl-phenyl]thieno[3,2-d]pyrimidin-6-yl]methyl]-1-isopropyl-pyrimidine-2,4-dione] | < 1 µM
18 | Cc1cc(Cl)cc(-c2ccnc3cc(Cn4c(=O)ccn(C(C)C)c4=O)sc23)c1O[C@H]1CCC2NCCO[C@H]21 (stereo partly drawn) [Example 511, 4-[[7-[2-[[(7S,7aR)-2,3,4,4a,5,6,7,7a-octahydrocyclopenta[b][1,4]oxazin-7-yl]oxy]-5-chloro-3-methyl-phenyl]thieno[3,2-b]pyridin-2-yl]methyl]-1-isopropyl-pyrimidine-2,4-dione] | < 1 µM
19 | Cc1cc(Cl)cc(-c2ncnc3cc(Cn4c(=O)ccn(C(C)C)c4=O)sc23)c1O[C@H]1CCCN(C)C1 [Example 512, 3-[[4-[5-chloro-3-methyl-2-[[(3S)-1-methyl-3-piperidyl]oxy]phenyl]thieno[3,2-d]pyrimidin-6-yl]methyl]-1-isopropyl-pyrimidine-2,4-dione] | < 1 µM
20 | Cc1cc(Cl)cc(-c2ncnc3cc(Cn4c(=O)ccn(C(C)C)c4=O)sc23)c1O[C@H]1CCCN(C(C)C)C1 [Example 513, 3-[[4-[5-chloro-2-[[(3S)-1-isopropyl-3-piperidyl]oxy]-3-methyl-phenyl]thieno[3,2-d]pyrimidin-6-yl]methyl]-1-isopropyl-pyrimidine-2,4-dione] | < 1 µM
